{"source": "patent US5084443A", "about": "“Promoting expression of acetylcholine receptors with LHRH antagonist” (Biomeasure, Inc., priority 1989, dated 1992)", "key": {"acetylcholine receptors": {"tested_on": "acetylcholine receptors", "format": "in vivo, Sprague Dawley rats", "conditions": "for AChR (cpm) / AChR: peptide crushed; for AChR: fmoles per ug protein"}, "denervated EDL muscle": {"tested_on": "denervated EDL muscle", "experiment": "Denervation atrophy of EDL muscle after peroneal nerve crush (wet muscle weight, protein content)", "format": "in vivo, Sprague Dawley rats", "conditions": "for Muscle wt / Proteins: peptide crushed; for Muscle wt: wet EDL weight; for Proteins: ug protein content per mg muscle weight", "method": "LHRH analogs can be tested for effectiveness in treating injured nerve tissue or preserving muscle mass according to the testing procedures described below for the LHRH analog BIM-21009. BIM-21009 is an antagonist of LHRH activity having the amino acid formula N-Acetyl-D-Naphthylalanine-D-para-Cl-Phe-D-Phe-Ser-Tyr-D-Arg-Phe-Arg-Pro-D-Ala-NH2. BIM-21009 was administered to animals both prior to and after denervation. The animals were prepared for treatment as follows.\nAdult male and female Sprague Dawley rats (Hilltop) weighing approximately 250-275 g were housed in groups of three of the same sex and provided with Purina rat chow and water ad libitum. They were maintained in a 12L:12D photoperiod with lights off at 19:00 hr. Animals were divided into 2 groups having six subdivisions each of 5-7 animals: (1) four days post-lesion: \"sham crushed\" (i.e., sham nerve crush) males and females, \"intact crushed\" (i.e., nerve crush control group) males and females, and \"LHRH antagonist treated and crushed\" (i.e., peptide treatment after nerve crush, also referred to as \"peptide crushed\") males and females; and (2) twelve days post-lesion: sham crushed males and females, intact crushed males and females, and LHRH treated and crushed males and females.\nAll animals were anesthetized with an 8% solution of chloral hydrate (0.4 g/kg). An incision was made on the left leg and the peroneal nerve was exposed at its site of entrance into the peroneal longus muscle. The nerve was crushed with a watchmaker forcep having a uniformly filed tip of 0.2 mm, by applying pressure on the nerve for 10 seconds, rotating the forceps, and applying pressure again on the opposite side for another 10 seconds. After crush, this area of approximately 1 mm becomes translucid. This modified crush method gives well-defined axonal interruption without disrupting the connective tissue sheaths or blood vessels in the region.\nAll chemically treated animals received 1 s.c. injection of the LHRH antagonist BIM-21009 at a dosage of 5 mg/kg 24 hrs prior to denervation. Animals in the 12 day groups received an additional injection of 5 mg/kg 6 days after the first injection.\nDissections were performed between 13:00 and 15:00 hrs. The peroneal nerve was allowed to regenerate for 4 or 12 days, after which the animals were anesthetized with chloral hydrate (0.4 g/kg), the extensor digitorum longus (\"EDL\") was dissected, frozen on powdered dry ice and stored at -70° C. until the day of the assay.\nThe Lowry Method was used for protein determinations. Statistical analysis was performed using 2×2 ANOVA, 1 way ANOVA. Tukey's HSD test was used for post-hoc comparisons."}, "[1]": {"conditions": "females, 4 days post-lesion, 5 mg/kg s.c."}, "[2]": {"conditions": "females, 12 days post-lesion, 2 x 5 mg/kg s.c."}, "[3]": {"conditions": "males, 4 days post-lesion, 5 mg/kg s.c."}, "[4]": {"conditions": "males, 12 days post-lesion, 2 x 5 mg/kg s.c."}}, "note": "Read-outs that look alike come from different tables or passages of the source.", "data": [{"substance": "N-Acetyl-D-Naphthylalanine-D-para-Cl-Phe-D-Phe-Ser-Tyr-D-Arg-Phe-Arg-Pro-D-Ala-NH2 [BIM-21009]", "values": [{"measurement": "ratio of cpm/mg muscle vs intact crushed groups", "setting": "acetylcholine receptors; both males and females (FIG. 5)", "value": "higher ratio of cpm/mg muscle"}, {"measurement": "number of ACh receptors", "setting": "acetylcholine receptors; both sexes, at 4 days after nerve crush, more marked in males", "value": "dramatic increase"}, {"measurement": "time course of effect on ACh receptor number", "setting": "acetylcholine receptors; day 4 vs day 12 post-lesion", "value": "maximal effect at day 4 post-lesion and a minimal or null effect by day 12"}, {"measurement": "AChR (cpm)", "setting": "acetylcholine receptors; [1]", "value": 23.39, "unit": "cpm"}, {"measurement": "AChR", "setting": "acetylcholine receptors; [1]", "value": 90.07, "unit": "fmol"}, {"measurement": "AChR (cpm)", "setting": "acetylcholine receptors; [2]", "value": 15.34, "unit": "cpm"}, {"measurement": "AChR", "setting": "acetylcholine receptors; [2]", "value": 65.74, "unit": "fmol"}, {"measurement": "ratio of AChR number/muscle (fM AChR/mg muscle or fM/ug protein) vs crushed group with intact gonads", "setting": "acetylcholine receptors; male and female rats (FIGS. 3 and 4)", "value": "significantly higher ratio"}, {"measurement": "AChR number/muscle weight ratio vs crushed untreated controls", "setting": "acetylcholine receptors; males with intact gonads (FIG. 4)", "value": "higher than in the crushed untreated controls"}, {"measurement": "AChR (cpm)", "setting": "acetylcholine receptors; [3]", "value": 38.37, "unit": "cpm"}, {"measurement": "AChR", "setting": "acetylcholine receptors; [3]", "value": 166.96, "unit": "fmol"}, {"measurement": "AChR (cpm)", "setting": "acetylcholine receptors; [4]", "value": 19.01, "unit": "cpm"}, {"measurement": "AChR", "setting": "acetylcholine receptors; [4]", "value": 82.09, "unit": "fmol"}, {"measurement": "atrophy of the denervated EDL muscle vs crushed control group", "setting": "denervated EDL muscle; both at 4 days and at 12 days post-lesion, less striking in females than in males", "value": "significantly decreased"}, {"measurement": "recovery from the crush-induced muscle atrophy: protein content", "setting": "denervated EDL muscle; females as well as males (FIG. 2)", "value": "increase in protein content rather than fat accumulation or edema"}, {"measurement": "Muscle wt", "setting": "denervated EDL muscle; females, 4 days post-lesion, 5 mg/kg s.c. 24 hrs prior to denervation", "value": 83.8, "unit": "mg"}, {"measurement": "Proteins", "setting": "denervated EDL muscle; [1]", "value": 4.58, "unit": "µg"}, {"measurement": "Muscle wt", "setting": "denervated EDL muscle; females, 12 days post-lesion, 5 mg/kg s.c. 24 hrs prior to denervation plus 5 mg/kg 6 days later", "value": 84.0, "unit": "mg"}, {"measurement": "Proteins", "setting": "denervated EDL muscle; [2]", "value": 4.23, "unit": "µg"}, {"measurement": "protection of EDL muscle from denervation atrophy", "setting": "denervated EDL muscle; males", "value": "protects the EDL muscle in the males from denervation atrophy"}, {"measurement": "Muscle wt", "setting": "denervated EDL muscle; males, 4 days post-lesion, 5 mg/kg s.c. 24 hrs prior to denervation", "value": 81.2, "unit": "mg"}, {"measurement": "Proteins", "setting": "denervated EDL muscle; [3]", "value": 4.05, "unit": "µg"}, {"measurement": "Muscle wt", "setting": "denervated EDL muscle; males, 12 days post-lesion, 5 mg/kg s.c. 24 hrs prior to denervation plus 5 mg/kg 6 days later", "value": 83.1, "unit": "mg"}, {"measurement": "Proteins", "setting": "denervated EDL muscle; [4]", "value": 4.34, "unit": "µg"}]}]}
